Key:
S. aureus = assay: Well diffusion assay, antibacterial; type: cell-based, Staphylococcus aureus; settings: 10 μl
Excerpt: (§1) The investigation focused on the antibacterial properties of extracts derived from onion peel, pomegranate peel, and chia seed, particularly when encapsulated in nanoformulations (OPE-CSNP and PPE-CSNP). The extracts, known for their richness in bioactive compounds like phenolic compounds, flavonoids, and tannins, were explored for potential health benefits against various microbes. The study employed the inhibition zone diameter to evaluate the effectiveness of these natural extracts in inhibiting microbial growth, thereby assessing their antimicrobial properties.
(§2) Moreover, these composites show promise as food preservatives, potentially extending shelf life, given their moderate antimicrobial activity against B. cereus and S. aureus.

B. cereus = assay: Well diffusion assay, antibacterial; type: cell-based, Bacillus cereus; settings: 10 μl
Excerpt: as §1, §2

Molecule	Inhibition zone diameter (mm) S. aureus (S. aureus) [mm]	Inhibition zone diameter (mm) B. cereus (B. cereus) [mm]
penicillin	14	14
CC1(C)S[C@@H]2[C@H](NC(=O)[C@H](N)c3ccccc3)C(=O)N2[C@H]1C(=O)O [Ampicillin, ampicillin]	16	16

Source: US12329171B1, “Natural food preservative” (IMAM MOHAMMAD IBN SAUD ISLAMIC UNIVERSITY, priority 2024, dated 2025)
